BindingDB's records for patent US11919896 (Zhuhai United Laboratories Co., 2024)

Assays:
Assay in all cases: In Vitro Test of Activities of Jak1, Jak2, Jak3, Tyk2 Kinases
[1] = molecular target: Non-receptor tyrosine-protein kinase TYK2 (Homo sapiens, UniProt P29597)
[2] = molecular target: Tyrosine-protein kinase JAK1 (Homo sapiens, UniProt P23458)
[3] = molecular target: Tyrosine-protein kinase JAK2 (Homo sapiens, UniProt O60674)
[4] = molecular target: T1, Tyrosine-protein kinase JAK3 (Homo sapiens, UniProt P52333)
T1 sequence (P52333 whole entry): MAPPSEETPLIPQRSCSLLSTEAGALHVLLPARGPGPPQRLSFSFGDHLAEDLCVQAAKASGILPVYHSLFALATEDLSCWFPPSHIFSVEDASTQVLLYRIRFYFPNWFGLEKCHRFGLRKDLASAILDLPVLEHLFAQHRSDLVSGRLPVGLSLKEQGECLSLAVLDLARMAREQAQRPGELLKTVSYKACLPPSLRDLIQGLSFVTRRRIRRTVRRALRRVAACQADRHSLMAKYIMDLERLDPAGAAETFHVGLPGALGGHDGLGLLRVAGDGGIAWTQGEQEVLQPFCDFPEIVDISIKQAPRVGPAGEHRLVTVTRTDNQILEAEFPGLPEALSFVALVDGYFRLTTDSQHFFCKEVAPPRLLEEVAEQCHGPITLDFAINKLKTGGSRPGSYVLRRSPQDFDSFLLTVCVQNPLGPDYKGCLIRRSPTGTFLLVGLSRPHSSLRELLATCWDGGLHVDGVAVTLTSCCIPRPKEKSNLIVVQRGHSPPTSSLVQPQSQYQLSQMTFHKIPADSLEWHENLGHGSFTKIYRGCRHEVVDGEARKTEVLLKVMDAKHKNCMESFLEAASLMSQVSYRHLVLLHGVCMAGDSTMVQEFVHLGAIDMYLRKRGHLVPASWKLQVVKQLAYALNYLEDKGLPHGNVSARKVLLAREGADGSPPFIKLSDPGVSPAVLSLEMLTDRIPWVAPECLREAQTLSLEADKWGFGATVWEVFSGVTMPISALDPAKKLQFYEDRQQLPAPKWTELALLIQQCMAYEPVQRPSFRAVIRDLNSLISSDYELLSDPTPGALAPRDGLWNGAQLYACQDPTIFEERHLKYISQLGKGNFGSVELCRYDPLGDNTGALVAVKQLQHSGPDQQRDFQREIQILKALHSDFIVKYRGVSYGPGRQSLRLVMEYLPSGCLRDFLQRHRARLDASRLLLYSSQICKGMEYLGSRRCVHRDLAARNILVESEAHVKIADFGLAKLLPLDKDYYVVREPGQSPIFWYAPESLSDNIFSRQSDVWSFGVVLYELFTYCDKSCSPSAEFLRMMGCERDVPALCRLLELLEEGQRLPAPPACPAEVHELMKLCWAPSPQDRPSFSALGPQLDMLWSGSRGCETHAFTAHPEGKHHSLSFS

Chain of Non-receptor tyrosine-protein kinase TYK2 (P29597 whole entry): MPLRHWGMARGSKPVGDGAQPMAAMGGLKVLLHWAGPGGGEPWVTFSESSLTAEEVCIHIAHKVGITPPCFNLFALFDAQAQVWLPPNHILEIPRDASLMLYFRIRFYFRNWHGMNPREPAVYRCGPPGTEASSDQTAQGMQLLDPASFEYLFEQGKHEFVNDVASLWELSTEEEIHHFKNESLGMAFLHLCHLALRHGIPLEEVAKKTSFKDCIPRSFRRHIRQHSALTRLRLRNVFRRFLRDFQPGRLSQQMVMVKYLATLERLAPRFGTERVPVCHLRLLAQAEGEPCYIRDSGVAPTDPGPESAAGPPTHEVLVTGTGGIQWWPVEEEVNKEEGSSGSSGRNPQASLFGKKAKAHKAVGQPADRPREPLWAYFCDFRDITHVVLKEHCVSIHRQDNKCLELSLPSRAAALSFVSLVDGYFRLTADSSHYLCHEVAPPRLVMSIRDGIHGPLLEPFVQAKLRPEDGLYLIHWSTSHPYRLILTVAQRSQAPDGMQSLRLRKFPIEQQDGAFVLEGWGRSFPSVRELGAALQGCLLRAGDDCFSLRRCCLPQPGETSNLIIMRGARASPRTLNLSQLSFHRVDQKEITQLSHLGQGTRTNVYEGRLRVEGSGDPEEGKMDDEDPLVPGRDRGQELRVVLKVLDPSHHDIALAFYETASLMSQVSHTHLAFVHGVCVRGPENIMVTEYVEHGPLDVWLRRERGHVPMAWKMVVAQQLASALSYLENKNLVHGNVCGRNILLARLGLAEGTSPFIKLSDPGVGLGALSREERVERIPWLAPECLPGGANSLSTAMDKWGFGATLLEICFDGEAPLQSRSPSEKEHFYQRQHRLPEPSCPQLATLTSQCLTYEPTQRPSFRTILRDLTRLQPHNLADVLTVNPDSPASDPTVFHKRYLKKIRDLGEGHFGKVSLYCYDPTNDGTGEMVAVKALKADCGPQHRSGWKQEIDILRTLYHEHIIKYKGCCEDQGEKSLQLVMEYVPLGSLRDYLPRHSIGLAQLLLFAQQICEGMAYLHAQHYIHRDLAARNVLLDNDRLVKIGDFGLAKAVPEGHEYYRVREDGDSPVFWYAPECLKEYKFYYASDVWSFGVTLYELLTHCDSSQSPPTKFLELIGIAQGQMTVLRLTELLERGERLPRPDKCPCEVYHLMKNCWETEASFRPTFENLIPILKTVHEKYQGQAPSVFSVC
Chain of Tyrosine-protein kinase JAK2 (O60674 whole entry): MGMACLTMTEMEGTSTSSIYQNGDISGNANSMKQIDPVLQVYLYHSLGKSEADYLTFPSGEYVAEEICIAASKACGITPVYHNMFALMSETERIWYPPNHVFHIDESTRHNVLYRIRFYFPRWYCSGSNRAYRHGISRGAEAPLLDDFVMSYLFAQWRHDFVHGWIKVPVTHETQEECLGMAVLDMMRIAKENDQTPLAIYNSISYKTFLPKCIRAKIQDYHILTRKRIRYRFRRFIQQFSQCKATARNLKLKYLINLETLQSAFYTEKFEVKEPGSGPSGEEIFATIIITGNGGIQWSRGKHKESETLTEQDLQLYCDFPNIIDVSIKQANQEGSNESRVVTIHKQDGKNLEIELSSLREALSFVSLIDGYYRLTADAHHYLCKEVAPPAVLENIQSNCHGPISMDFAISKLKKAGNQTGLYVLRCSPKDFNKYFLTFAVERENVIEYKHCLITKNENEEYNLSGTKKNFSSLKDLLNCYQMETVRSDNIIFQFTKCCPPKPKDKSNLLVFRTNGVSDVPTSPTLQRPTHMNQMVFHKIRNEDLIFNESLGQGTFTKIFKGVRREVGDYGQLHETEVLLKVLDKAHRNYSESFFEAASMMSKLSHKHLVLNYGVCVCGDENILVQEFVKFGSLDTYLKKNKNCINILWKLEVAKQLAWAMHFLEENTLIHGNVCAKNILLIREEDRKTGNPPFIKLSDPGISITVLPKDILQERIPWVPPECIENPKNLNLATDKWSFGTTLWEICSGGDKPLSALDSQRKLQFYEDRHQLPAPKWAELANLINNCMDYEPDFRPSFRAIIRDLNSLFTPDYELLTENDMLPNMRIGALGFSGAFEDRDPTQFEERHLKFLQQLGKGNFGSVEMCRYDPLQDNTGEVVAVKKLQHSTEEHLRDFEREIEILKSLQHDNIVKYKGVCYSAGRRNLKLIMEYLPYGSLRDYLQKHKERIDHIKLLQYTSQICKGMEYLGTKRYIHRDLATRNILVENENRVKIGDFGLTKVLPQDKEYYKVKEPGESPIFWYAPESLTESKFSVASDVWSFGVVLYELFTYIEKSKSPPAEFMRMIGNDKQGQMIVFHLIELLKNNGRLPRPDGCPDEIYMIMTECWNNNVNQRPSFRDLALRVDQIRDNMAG
Chain of Tyrosine-protein kinase JAK1 (P23458 whole entry): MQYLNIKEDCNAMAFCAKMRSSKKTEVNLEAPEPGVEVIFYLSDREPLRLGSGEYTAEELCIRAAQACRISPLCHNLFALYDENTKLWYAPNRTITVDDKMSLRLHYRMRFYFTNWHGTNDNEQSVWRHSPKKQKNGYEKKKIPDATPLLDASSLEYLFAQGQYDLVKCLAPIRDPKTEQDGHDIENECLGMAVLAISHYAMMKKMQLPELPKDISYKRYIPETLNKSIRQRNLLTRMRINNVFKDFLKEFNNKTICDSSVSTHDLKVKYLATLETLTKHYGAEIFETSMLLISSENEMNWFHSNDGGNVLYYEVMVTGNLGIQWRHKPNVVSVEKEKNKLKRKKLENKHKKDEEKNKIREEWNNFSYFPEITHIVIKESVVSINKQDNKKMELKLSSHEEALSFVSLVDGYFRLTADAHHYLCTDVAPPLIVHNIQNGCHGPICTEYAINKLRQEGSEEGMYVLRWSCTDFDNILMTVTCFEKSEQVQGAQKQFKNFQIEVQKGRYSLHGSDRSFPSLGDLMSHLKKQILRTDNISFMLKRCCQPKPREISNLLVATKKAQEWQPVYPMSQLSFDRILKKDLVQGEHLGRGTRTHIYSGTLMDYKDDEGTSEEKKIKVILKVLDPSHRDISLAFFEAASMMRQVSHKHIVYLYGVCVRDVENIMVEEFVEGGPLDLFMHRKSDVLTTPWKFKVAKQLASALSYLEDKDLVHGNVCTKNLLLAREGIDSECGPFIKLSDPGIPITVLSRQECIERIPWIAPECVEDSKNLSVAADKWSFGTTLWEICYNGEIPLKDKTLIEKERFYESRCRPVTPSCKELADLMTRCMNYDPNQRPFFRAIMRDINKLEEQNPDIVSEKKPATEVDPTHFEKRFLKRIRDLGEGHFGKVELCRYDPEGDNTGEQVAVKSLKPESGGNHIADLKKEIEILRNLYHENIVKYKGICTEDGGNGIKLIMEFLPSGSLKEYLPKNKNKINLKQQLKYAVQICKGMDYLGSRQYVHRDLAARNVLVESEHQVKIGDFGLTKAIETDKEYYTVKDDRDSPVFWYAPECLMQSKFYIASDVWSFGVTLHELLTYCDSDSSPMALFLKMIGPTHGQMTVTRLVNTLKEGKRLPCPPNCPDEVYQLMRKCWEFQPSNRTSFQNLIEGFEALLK

Row | Compound | IC50 [1] | IC50 [2] | IC50 [3] | IC50 [4]
1 | O=C(Nc1nc2cccc(C3(F)CCC4(CC3)CN(C(=O)CC(F)F)C4)n2n1)C1CC1 [US11919896, Compound 4-8] | > 10000 nM | 244 nM | 3710 nM | 364 nM
2 | O=C(Nc1nc2cccc(C3CCC4(CC3)CN(C(=O)C3(F)CC3)C4)n2n1)[C@H]1CC1(F)F [US11919896, Compound 8-7] | 1030 nM | 63 nM | 5460 nM | > 10000 nM
3 | O=C(Nc1nc2cccc(C3CCC4(CC3)CN(C(=O)C3(F)CC3)C4)n2n1)[C@@H]1CC1(F)F [US11919896, Compound 9-4] | 1190 nM | 253 nM | 982 nM | > 10000 nM

These reach a lower IC50 [1]. Values come first.

Row | IC50 [1] | IC50 [2] | IC50 [3] | IC50 [4] | Compound
4 | 194 nM | 436 nM | 7690 nM | > 10000 nM | O=C(Nc1nc2cccc(C3(F)CCC4(CC3)CN(C(=O)CC(F)(F)F)C4)n2n1)C1CC1 [US11919896, Compound 4-7]
5 | 109 nM | 60 nM | 1380 nM | > 10000 nM | N#CCC(=O)N1CC2(CCC(c3cccc4nc(NC(=O)[C@H]5CC5(F)F)nn34)CC2)C1 [US11919896, Compound 8-8]
6 | 175 nM | 224 nM | 624 nM |  | N#CCC(=O)N1CC2(CCC(c3cccc4nc(NC(=O)C5CC5(F)F)nn34)CC2)C1 (stereo not drawn) [US11919896, Compound 9-5]
